Source: ChEMBL document CHEMBL1201861, “Genomics of Drug Sensitity in Cancer screening data, Wellcome Trust Sanger Institute”

Test system: REH;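 further: growth inhibition of REH cells determined with a cell viability read-out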
Assay: cells
Format: functional, cell-based, Homo sapiens
Conditions: Homo sapiens, REH
Description: SANGER: Inhibition of human REH cell growth in a cell viability assay.

| Compound | IC50 |
| --- | --- |
| C/C(=C\c1csc(C)n1)[C@@H]1C[C@@H]2O[C@]2(C)CCC[C@H](C)[C@H](O)[C@@H](C)C(=O)C(C)(C)[C@@H](O)CC(=O)O1 [PATUPILONE] | 1.76 nM |

Test system: NCI-H1694;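 further: cell viability assay measuring inhibition of growth in human NCI-H1694 cells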
Assay: cells
Format: functional, cell-based, Homo sapiens
Conditions: Homo sapiens, NCI-H1694
Description: SANGER: Inhibition of human NCI-H1694 cell growth in a cell viability assay.

| Compound | IC50 |
| --- | --- |
| C/C(=C\c1csc(C)n1)[C@@H]1C[C@@H]2O[C@]2(C)CCC[C@H](C)[C@H](O)[C@@H](C)C(=O)C(C)(C)[C@@H](O)CC(=O)O1 [PATUPILONE] | > 32 nM |

Test system: LK-2;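 further: growth inhibition of LK-2 cells, read out with a viability assay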
Assay: cells
Format: functional, cell-based
Conditions: Homo sapiens
Description: SANGER: Inhibition of human LK-2 cell growth in a cell viability assay.

| Compound | IC50 |
| --- | --- |
| C/C(=C\c1csc(C)n1)[C@@H]1C[C@@H]2O[C@]2(C)CCC[C@H](C)[C@H](O)[C@@H](C)C(=O)C(C)(C)[C@@H](O)CC(=O)O1 [PATUPILONE] | 4.86 nM |

Test system: BC1 cell line
Assay: SANGER: Inhibition of human BC-1 cell growth in a cell viability assay.
Format: functional, cell-based
Conditions: Homo sapiens, BC1

| Compound | IC50 |
| --- | --- |
| C/C(=C\c1csc(C)n1)[C@@H]1C[C@@H]2O[C@]2(C)CCC[C@H](C)[C@H](O)[C@@H](C)C(=O)C(C)(C)[C@@H](O)CC(=O)O1 [PATUPILONE] | 1.99 nM |

Test system: NCI-H2228;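 further: growth inhibition of human NCI-H2228 cells, read out by a cell viability assay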
Assay: cells
Format: functional, cell-based
Conditions: Homo sapiens
Description: SANGER: Inhibition of human NCI-H2228 cell growth in a cell viability assay.

| Compound | IC50 |
| --- | --- |
| C/C(=C\c1csc(C)n1)[C@@H]1C[C@@H]2O[C@]2(C)CCC[C@H](C)[C@H](O)[C@@H](C)C(=O)C(C)(C)[C@@H](O)CC(=O)O1 [PATUPILONE] | 0.473 nM |

Test system: HCC1806;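 further: growth inhibition of the cancer cell line, determined with a cell viability assay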
Assay: cells
Format: functional, cell-based
Conditions: Homo sapiens
Description: SANGER: Inhibition of human HCC1806 cell growth in a cell viability assay.

| Compound | IC50 |
| --- | --- |
| C/C(=C\c1csc(C)n1)[C@@H]1C[C@@H]2O[C@]2(C)CCC[C@H](C)[C@H](O)[C@@H](C)C(=O)C(C)(C)[C@@H](O)CC(=O)O1 [PATUPILONE] | 1.38 nM |

Test system: PC-3;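 further: cell viability assay measuring growth inhibition of PC-3 cells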
Assay: cells
Format: functional, cell-based
Conditions: Homo sapiens
Description: SANGER: Inhibition of human PC-3 cell growth in a cell viability assay.

| Compound | IC50 |
| --- | --- |
| C/C(=C\c1csc(C)n1)[C@@H]1C[C@@H]2O[C@]2(C)CCC[C@H](C)[C@H](O)[C@@H](C)C(=O)C(C)(C)[C@@H](O)CC(=O)O1 [PATUPILONE] | 23.4 nM |

Test system: JIYOYE
Assay: cells
Format: functional, cell-based, Homo sapiens
Conditions: Homo sapiens, JIYOYE
Description: SANGER: Inhibition of human JiyoyeP-2003 cell growth in a cell viability assay.

| Compound | IC50 |
| --- | --- |
| C/C(=C\c1csc(C)n1)[C@@H]1C[C@@H]2O[C@]2(C)CCC[C@H](C)[C@H](O)[C@@H](C)C(=O)C(C)(C)[C@@H](O)CC(=O)O1 [PATUPILONE] | 7.81 nM |

Test system: KYSE-70 cell line;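 further: cell viability assay read-out, with IC50 expressing suppression of KYSE-70 cell growth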
Assay: cells
Format: functional, cell-based
Conditions: Homo sapiens
Description: SANGER: Inhibition of human KYSE-70 cell growth in a cell viability assay.

| Compound | IC50 |
| --- | --- |
| C/C(=C\c1csc(C)n1)[C@@H]1C[C@@H]2O[C@]2(C)CCC[C@H](C)[C@H](O)[C@@H](C)C(=O)C(C)(C)[C@@H](O)CC(=O)O1 [PATUPILONE] | 7.58 nM |

Test system: NCI-H2052;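 further: growth inhibition of NCI-H2052 cells, read out with a cell viability assay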
Assay: cells
Format: functional, cell-based
Conditions: Homo sapiens
Description: SANGER: Inhibition of human NCI-H2052 cell growth in a cell viability assay.

| Compound | IC50 |
| --- | --- |
| C/C(=C\c1csc(C)n1)[C@@H]1C[C@@H]2O[C@]2(C)CCC[C@H](C)[C@H](O)[C@@H](C)C(=O)C(C)(C)[C@@H](O)CC(=O)O1 [PATUPILONE] | > 32 nM |

Test system: RPMI-6666
Assay: cells
Format: functional, cell-based, Homo sapiens
Conditions: Homo sapiens, RPMI-6666
Description: SANGER: Inhibition of human RPMI-6666 cell growth in a cell viability assay.

| Compound | IC50 |
| --- | --- |
| C/C(=C\c1csc(C)n1)[C@@H]1C[C@@H]2O[C@]2(C)CCC[C@H](C)[C@H](O)[C@@H](C)C(=O)C(C)(C)[C@@H](O)CC(=O)O1 [PATUPILONE] | 1.5 nM |

Test system: NB1;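 further: reduction of NB1 cell proliferation, read out with a viability assay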
Assay: cells
Format: functional, cell-based, Homo sapiens
Conditions: Homo sapiens, NB1
Description: SANGER: Inhibition of human NB1 cell growth in a cell viability assay.

| Compound | IC50 |
| --- | --- |
| C/C(=C\c1csc(C)n1)[C@@H]1C[C@@H]2O[C@]2(C)CCC[C@H](C)[C@H](O)[C@@H](C)C(=O)C(C)(C)[C@@H](O)CC(=O)O1 [PATUPILONE] | 14.6 nM |

Test system: HOS;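 further: growth inhibition of human HOS cells, read out with a cell viability assay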
Assay: cells
Format: functional, cell-based
Conditions: Homo sapiens
Description: SANGER: Inhibition of human HOS cell growth in a cell viability assay.

| Compound | IC50 |
| --- | --- |
| C/C(=C\c1csc(C)n1)[C@@H]1C[C@@H]2O[C@]2(C)CCC[C@H](C)[C@H](O)[C@@H](C)C(=O)C(C)(C)[C@@H](O)CC(=O)O1 [PATUPILONE] | 0.215 nM |

Test system: NCI-H748;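 further: growth inhibition of NCI-H748 cells, measured by a cell viability assay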
Assay: cells
Format: functional, cell-based, Homo sapiens
Conditions: Homo sapiens, NCI-H748
Description: SANGER: Inhibition of human NCI-H748 cell growth in a cell viability assay.

| Compound | IC50 |
| --- | --- |
| C/C(=C\c1csc(C)n1)[C@@H]1C[C@@H]2O[C@]2(C)CCC[C@H](C)[C@H](O)[C@@H](C)C(=O)C(C)(C)[C@@H](O)CC(=O)O1 [PATUPILONE] | > 32 nM |

Test system: T84;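 further: growth inhibition measured with a cell viability readout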
Assay: cells
Format: functional, cell-based
Conditions: Homo sapiens
Description: SANGER: Inhibition of human T84 cell growth in a cell viability assay.

| Compound | IC50 |
| --- | --- |
| C/C(=C\c1csc(C)n1)[C@@H]1C[C@@H]2O[C@]2(C)CCC[C@H](C)[C@H](O)[C@@H](C)C(=O)C(C)(C)[C@@H](O)CC(=O)O1 [PATUPILONE] | 0.24 nM |

Test system: HEC-1;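 further: growth inhibition of the cell line, read out with a cell viability assay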
Assay: cells
Format: functional, cell-based
Conditions: Homo sapiens
Description: SANGER: Inhibition of human HEC-1 cell growth in a cell viability assay.

| Compound | IC50 |
| --- | --- |
| C/C(=C\c1csc(C)n1)[C@@H]1C[C@@H]2O[C@]2(C)CCC[C@H](C)[C@H](O)[C@@H](C)C(=O)C(C)(C)[C@@H](O)CC(=O)O1 [PATUPILONE] | 9.09 nM |

Test system: CAKI-1;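 further: growth inhibition of CAKI-1 cells, measured by a cell viability assay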
Assay: cells
Format: functional, cell-based
Conditions: Homo sapiens
Description: SANGER: Inhibition of human CAKI-1 cell growth in a cell viability assay.

| Compound | IC50 |
| --- | --- |
| C/C(=C\c1csc(C)n1)[C@@H]1C[C@@H]2O[C@]2(C)CCC[C@H](C)[C@H](O)[C@@H](C)C(=O)C(C)(C)[C@@H](O)CC(=O)O1 [PATUPILONE] | 17.3 nM |

Test system: BC-3;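 further: cell viability assay measuring growth inhibition of human BC-3 cells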
Assay: cells
Format: functional, cell-based, Homo sapiens
Conditions: Homo sapiens, BC-3
Description: SANGER: Inhibition of human BC-3 cell growth in a cell viability assay.

| Compound | IC50 |
| --- | --- |
| C/C(=C\c1csc(C)n1)[C@@H]1C[C@@H]2O[C@]2(C)CCC[C@H](C)[C@H](O)[C@@H](C)C(=O)C(C)(C)[C@@H](O)CC(=O)O1 [PATUPILONE] | 8.39 nM |

Test system: MDA-MB-453
Assay: cells
Format: functional, cell-based
Conditions: Homo sapiens
Description: SANGER: Inhibition of human MDA-MB-453 cell growth in a cell viability assay.

| Compound | IC50 |
| --- | --- |
| C/C(=C\c1csc(C)n1)[C@@H]1C[C@@H]2O[C@]2(C)CCC[C@H](C)[C@H](O)[C@@H](C)C(=O)C(C)(C)[C@@H](O)CC(=O)O1 [PATUPILONE] | > 32 nM |

Test system: CaR-1;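 further: growth inhibition of human CaR-1 cancer cells, read out with a cell viability assay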
Assay: cells
Format: functional, cell-based
Conditions: Homo sapiens
Description: SANGER: Inhibition of human CaR-1 cell growth in a cell viability assay.

| Compound | IC50 |
| --- | --- |
| C/C(=C\c1csc(C)n1)[C@@H]1C[C@@H]2O[C@]2(C)CCC[C@H](C)[C@H](O)[C@@H](C)C(=O)C(C)(C)[C@@H](O)CC(=O)O1 [PATUPILONE] | > 32 nM |

Test system: KU-19-19
Assay: cells
Format: functional, cell-based
Conditions: Homo sapiens
Description: SANGER: Inhibition of human KU-19-19 cell growth in a cell viability assay.

| Compound | IC50 |
| --- | --- |
| C/C(=C\c1csc(C)n1)[C@@H]1C[C@@H]2O[C@]2(C)CCC[C@H](C)[C@H](O)[C@@H](C)C(=O)C(C)(C)[C@@H](O)CC(=O)O1 [PATUPILONE] | > 32 nM |

Test system: ACHN;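 further: cell viability read-out used to gauge how strongly growth of human ACHN cells is suppressed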
Assay: cells
Format: functional, cell-based
Conditions: Homo sapiens
Description: SANGER: Inhibition of human ACHN cell growth in a cell viability assay.

| Compound | IC50 |
| --- | --- |
| C/C(=C\c1csc(C)n1)[C@@H]1C[C@@H]2O[C@]2(C)CCC[C@H](C)[C@H](O)[C@@H](C)C(=O)C(C)(C)[C@@H](O)CC(=O)O1 [PATUPILONE] | 0.749 nM |

Test system: HT-3;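 further: growth inhibition measured with a cell viability readout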
Assay: cells
Format: functional, cell-based
Conditions: Homo sapiens
Description: SANGER: Inhibition of human HT-3 cell growth in a cell viability assay.

| Compound | IC50 |
| --- | --- |
| C/C(=C\c1csc(C)n1)[C@@H]1C[C@@H]2O[C@]2(C)CCC[C@H](C)[C@H](O)[C@@H](C)C(=O)C(C)(C)[C@@H](O)CC(=O)O1 [PATUPILONE] | 15 nM |

Test system: Ca9-22;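 further: growth inhibition of Ca9-22 cells, read out with a cell viability assay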
Assay: cells
Format: functional, cell-based
Conditions: Homo sapiens
Description: SANGER: Inhibition of human Ca9-22 cell growth in a cell viability assay.

| Compound | IC50 |
| --- | --- |
| C/C(=C\c1csc(C)n1)[C@@H]1C[C@@H]2O[C@]2(C)CCC[C@H](C)[C@H](O)[C@@H](C)C(=O)C(C)(C)[C@@H](O)CC(=O)O1 [PATUPILONE] | 1.13 nM |

Test system: SK-MES-1;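 further: growth inhibition of human SK-MES-1 cells, read out with a cell viability assay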
Assay: cells
Format: functional, cell-based
Conditions: Homo sapiens
Description: SANGER: Inhibition of human SK-MES-1 cell growth in a cell viability assay.

| Compound | IC50 |
| --- | --- |
| C/C(=C\c1csc(C)n1)[C@@H]1C[C@@H]2O[C@]2(C)CCC[C@H](C)[C@H](O)[C@@H](C)C(=O)C(C)(C)[C@@H](O)CC(=O)O1 [PATUPILONE] | 1.24 nM |

Test system: Capan-2;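 further: Capan-2 cell growth inhibition, read out with a viability assay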
Assay: cells
Format: functional, cell-based
Conditions: Homo sapiens
Description: SANGER: Inhibition of human Capan-2 cell growth in a cell viability assay.

| Compound | IC50 |
| --- | --- |
| C/C(=C\c1csc(C)n1)[C@@H]1C[C@@H]2O[C@]2(C)CCC[C@H](C)[C@H](O)[C@@H](C)C(=O)C(C)(C)[C@@H](O)CC(=O)O1 [PATUPILONE] | 30 nM |

Test system: Daoy;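 further: daoy cell growth inhibition, read out as cell viability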
Assay: cells
Format: functional, cell-based
Conditions: Homo sapiens
Description: SANGER: Inhibition of human Daoy cell growth in a cell viability assay.

| Compound | IC50 |
| --- | --- |
| C/C(=C\c1csc(C)n1)[C@@H]1C[C@@H]2O[C@]2(C)CCC[C@H](C)[C@H](O)[C@@H](C)C(=O)C(C)(C)[C@@H](O)CC(=O)O1 [PATUPILONE] | < 0.125 nM |
